The text below walks through data of patent US5821240A, “Pyrimido[5,4]-dipyrimidines, pharmaceuticals containing them, their use and processes for the preparation thereof” (Dr. Karl Thomae GmbH, priority 1996, dated 1998).

pIC50: −log10 of the molar value.

Assay [1] relates to F/L-HERc cells expressing human EGF-R. Put plainly: Inhibition of EGF-dependent proliferation of F/L-HERc cells. The assay is classed as cell-based, murine cell line; human EGF-R. The note with it: EGF 20 ng/ml, 37° C., 48 hours. The text has this:
(§1) In this case, an interleukin-3 (IL-3)-dependent cell line of murine origin was used and was genetically modified in such a way that it expresses functional human EGF-R. Proliferation of these cells, which are called F/L-HERc, can therefore be stimulated either by murine IL-3 or by EGF (see von Ruden, T. et al. in EMBO J. 7, 2749-2756 (1988) and Pierce, J. H. et al. in Science 239, […] (1988)).
(§2) The starting material for the F/L-HERc cells was the cell line FDC-P1 whose preparation has been described by Dexter, T. M. et al. in J. Exp. Med. 152, 1036-1047 (1980). However, it is also possible as an alternative to use other growth factor-dependent cells (see, for example, Pierce, J. H. et al. in Science 239, 628-631 (1988), Shibuya, H. et al. in Cell 70, 57-67 (1992) and Alexander, W. S. et al. in EMBO J. 10, 3683-3691 (1991)). Recombinant retroviruses as described in von Ruden, T. et al., EMBO J. 7, 2749-2756 (1988) Were used for expression of the human EGF-R cDNA (see Ullrich, A. et al. in Nature 309, 418-425 (1984)), with the difference that the retroviral vector LXSN (see Miller, A. D. et al. in BioTechniques 7, 980-990 (1989)) was employed for expression of the EGF-R cDNA, and the line GP+E86 (see Markowitz, D. et al. in J. Virol. 62, 1120-1124 (1988)) was used as packaging cell.
(§3) F/L-HERc cells were cultivated in RPMI/1640 medium (BioWhittaker), supplemented with 10% fetal calf serum (FCS, Boehringer Mannheim), 2 mM glutamine (BioWhittaker), standard antibiotics and 20 ng/ml human EGF (Promega), at 37° C. and 5% CO2. To investigate the inhibitor activity of the compounds according to the invention, 1.5×10^4 cells were cultivated in the above medium (200 μl) per well in triplicates in 96-well plates, stimulating proliferation of the cells either with EGF (20 ng/ml) or with murine IL-3. The source used for IL-3 was culture supernatants from the cell line X63/0 mIL-3 (see Karasuyama, H. et al. in Eur. J. Immunol. 18, 97-104 (1988)). The compounds according to the invention were dissolved in 100% dimethyl sulphoxide (DMSO) and added in various dilutions to the cultures, with the maximum DMSO concentration being 1%. The cultures were incubated at 37° C. for 48 hours.
(§4) To determine the inhibitory activity of the compounds according to the invention, the relative cell count was measured in O.D. units using the Cell Titre 96™ AQueous Non-Radioactive Cell Proliferation Assay (Promega). The relative cell count was calculated as a percent of the control (F/L-HERc cells without inhibitor), and the concentration of active substance which inhibits the proliferation of the cells by 50% (IC50) was inferred.

The subject of assay [2] is F/L-HERc cells. Put plainly: Inhibition of IL-3-dependent proliferation of F/L-HERc cells. Type of assay: cell-based. Particulars: Mus musculus, murine IL-3, 37° C., 48 hours.
Description: as §1, §2, §3, §4

Broadly, the pIC50 is the negative decadic logarithm of the IC50, by convention in mol/L. Read a high pIC50 as a small IC50. `CN1CCC(N(C)c2ncc3ncnc(Nc4ccc(F)c(Cl)c4)c3n2)CC1` [1(28), 4-[(3-Chloro-4-fluorophenyl)amino]-6-[N-methyl-N-(1-methyl-4-piperidinyl)amino]pyrimido[5,4-d]pyrimidine]: the pIC50 in assay [1] is 7.85; in assay [2] it was 5.00.
In the same order, the values of `NCC1CCCC(CNc2ncc3ncnc(Nc4ccc(F)c(Cl)c4)c3n2)C1` (stereo not drawn) [1(38), 4-[(3-Chloro-4-fluorophenyl)amino]-6-[3-(aminomethyl)cyclohexylmethylamino]pyrimido[5,4-d]pyrimidine] are 7.29 and less than 6.00.
The matching figures for `COc1ccccc1N1CCN(c2ncc3ncnc(Nc4ccc(F)c(Cl)c4)c3n2)CC1` [1(33), 4-[(3-Chloro-4-fluorophenyl)amino]-6-[4-(2-methoxyphenyl)-1-piperazinyl]pyrimido[5,4-d]pyrimidine]: less than 6.00 and less than 4.70.
In the case of `N#CN1CCC(Nc2ncc3ncnc(Nc4ccc(F)c(Cl)c4)c3n2)CC1` [1(50), 4-[(3-Chloro-4-fluorophenyl)amino]-6-[(1-cyano-4-piperidinyl)amino]pyrimido[5,4-d]pyrimidine], the pIC50 in assay [1] was 8.52; in assay [2] it was less than 6.00.
In the same order, the values of `NCC1CCCN(c2ncc3ncnc(Nc4ccc(F)c(Cl)c4)c3n2)C1` (stereo not drawn) [1(61), 4-[(3-Chloro-4-fluorophenyl)amino]-6-[3-aminomethyl-1-piperidinyl]pyrimido[5,4-d]pyrimidine] are 7.30 and less than 6.00.
With `CCN(CCO)c1ncc2ncnc(Nc3ccc(F)c(Cl)c3)c2n1` [1(23), 4-[(3-Chloro-4-fluorophenyl)amino]-6-[N-ethyl-N-(2-hydroxyethyl)amino]pyrimido[5,4-d]pyrimidine], the figures for the pIC50 in assay [1] and in assay [2] were 7.20 and less than 6.00, respectively.
In the same order, the values of `Fc1ccc(Nc2ncnc3cnc(N4CCC(N5CCOCC5)CC4)nc23)cc1Cl` [1(30), 4-[(3-Chloro-4-fluorophenyl)amino]-6-[4-(morpholino)-1-Piperidinyl]pyrimido[5,4-d]pyrimidine] are 6.90 and less than 4.70.
The matching figures for `Nc1ccc(CNc2ncc3ncnc(Nc4ccc(F)c(Cl)c4)c3n2)cc1` [1(14), 4-[(3-Chloro-4-fluorophenyl)amino]-6-[4-aminobenzylamino]pyrimido[5,4-d]pyrimidine]: 7.55 and less than 5.00.
Consider `Fc1ccc(Nc2ncnc3cnc(N4CCCNCC4)nc23)cc1Cl` [1(13), 4-[(3-Chloro-4-fluorophenyl)amino]-6-[1-homopiperazinyl]-pyrimido[5,4-d]pyrimidine], for which the pIC50 in assay [1] is 6.82; in assay [2] it was less than 5.00.
The matching figures for `Fc1ccc(Nc2ncnc3cnc(NCC45CCN(CC4)CC5)nc23)cc1Cl` [1(24), 4-[(3-Chloro-4-fluorophenyl)amino]-6-[4-quinuclidinylmethylamino]pyrimido[5,4-d]pyrimidine]: 8.05 and less than 6.00.
In the same order, the values of `COC(=O)[C@H]1CC[C@H](Nc2ncc3ncnc(Nc4cc(Cl)c(N)c(Cl)c4)c3n2)CC1` [1(15), 4-[(4-Amino-3,5-dichlorophenyl)amino]-6-[(trans-4-methoxycarbonylcyclohexyl)amino]pyrimido[5,4-d]pyrimidine] are 7.82 and less than 5.00.
As to `COC(=O)NC1CCN(c2ncc3ncnc(Nc4ccc(F)c(Cl)c4)c3n2)CC1` [1(1), 4-[(3-Chloro-4-fluorophenyl)amino]-6-[4-methoxycarbonylamino-1-piperidinyl]pyrimido[5,4-d]pyrimidine], the pIC50 is 7.47 in assay [1] and less than 5.00 in assay [2].
The matching figures for `CC(C)(C)OC(=O)N1CCC(Nc2ncc3ncnc(Nc4ccc(F)c(Cl)c4)c3n2)CC1` [1(2), 4-[(3-Chloro-4-fluorophenyl)amino]-6-[1-tert-butyloxycarbonyl-4-piperidinylamino]pyrimido[5,4-d]pyrimidine]: 7.36 and less than 5.00.
In the same order, the values of `OC1CCN(c2ncc3ncnc(Nc4ccc(F)c(Cl)c4)c3n2)CC1` [1(48), 4-[(3-Chloro-4-fluorophenyl)amino]-6-[4-hydroxy-1-piperidinyl]pyrimido[5,4-d]pyrimidine] are 7.44 and less than 6.00.
In the same order, the values of `CN1CCC(C2CCN(c3ncc4ncnc(Nc5ccc(F)c(Cl)c5)c4n3)CC2)CC1` [1(41), 4-[(3-Chloro-4-fluorophenyl)amino]-6-[4-(1-methyl-4-piperidinyl)-1-piperidinyl]pyrimido[5,4-d]pyrimidine] are 6.70 and less than 6.00.
Take `Nc1cc(Cl)c(Nc2ncnc3cnc(N[C@H]4CC[C@H](O)CC4)nc23)cc1Cl` [1(62), 4-[(4-Amino-2,5-dichlorophenyl)amino]-6-[trans-4-hydroxycyclohexylamino]pyrimido[5,4-d]pyrimidine]: the pIC50 in assay [1] was 8.40; in assay [2], less than 5.00.
In the same order, the values of `O[C@H]1CC[C@H](Nc2ncc3ncnc(Nc4cccc(Oc5ccccc5)c4)c3n2)CC1` [1(64)] are 6.82 and less than 5.00.
In the same order, the values of `NCCCCCNc1ncc2ncnc(Nc3ccc(F)c(Cl)c3)c2n1` [1(54), 4-[(3-Chloro-4-fluorophenyl)amino]-6-[5-aminopentylamino]pyrimido[5,4-d]pyrimidine] are 8.00 and less than 6.00.
The matching figures for `Fc1ccc(Nc2ncnc3cnc(NCC4CCNCC4)nc23)cc1Cl` [1(29), 4-[(3-Chloro-4-fluorophenyl)amino]-6-[4-piperidinylmethylamino]pyrimido[5,4-d]pyrimidine]: 7.89 and less than 4.70.
On to `CN1CCCN(c2ncc3ncnc(Nc4ccc(F)c(Cl)c4)c3n2)CC1` [1(12), 4-[(3-Chloro-4-fluorophenyl)amino]-6-[4-methyl-1-homopiperazinyl]pyrimido[5,4-d]pyrimidine], for which the results for the pIC50 in assay [1] and in assay [2] were 6.43 and less than 5.00, respectively.
Take `CC(C)(C)OC(=O)N1CCC(CNc2ncc3ncnc(Nc4ccc(F)c(Cl)c4)c3n2)CC1` [1(26), 4-[(3-Chloro-4-fluorophenyl)amino]-6-[(1-tert-butyloxycarbonyl-4-piperidinyl)methylamino]pyrimido[5,4-d]pyrimidine]: the pIC50 in assay [1] is 6.70; in assay [2], less than 4.70.
For the compound `CN1CCC(CNc2ncc3ncnc(Nc4ccc(F)c(Cl)c4)c3n2)CC1` [1(51), 4-[(3-Chloro-4-fluorophenyl)amino]-6-[(1-methyl-4-piperidinyl)methylamino]pyrimido[5,4-d]pyrimidine], the pIC50 in assay [1] was 8.05; in assay [2], less than 6.00.
Turning to `OCc1cccc(Nc2ncnc3cnc(N[C@H]4CC[C@H](O)CC4)nc23)c1` [1(47), 4-[(3-Hydroxymethylphenyl)amino]-6-[trans-4-hydroxycyclohexylamino]pyrimido[5,4-d]pyrimidine], the pIC50 in assay [1] is less than 7.00; in assay [2], less than 6.00.
For `NCCNc1ncc2ncnc(Nc3ccc(F)c(Cl)c3)c2n1` [1(6), 4-[(3-Chloro-4-fluorophenyl)amino]-6-[2-aminoethylamino]-pyrimido[5,4-d]pyrimidine], the pIC50 in assay [1] is 6.91; in assay [2], less than 5.00.
The matching figures for `COc1cccc(N2CCN(c3ncc4ncnc(Nc5ccc(F)c(Cl)c5)c4n3)CC2)c1` [1(32), 4-[(3-Chloro-4-fluorophenyl)amino]-6-[4-(3-methoxyphenyl)-1-piperazinyl]pyrimido[5,4-d]pyrimidine]: less than 6.00 and less than 4.70.
Consider `O=C(N[C@H]1CC[C@H](CNc2ncc3ncnc(Nc4ccc(F)c(Cl)c4)c3n2)CC1)OCc1ccccc1` [1(60), 4-[(3-Chloro-4-fluorophenyl)amino]-6-[trans-4-(benzyloxycarbonylamino)cyclohexylmethylamino]pyrimido[5,4-d]pyrimidine], for which the pIC50 is 6.92 in assay [1] and less than 5.00 in assay [2].
For the compound `NC[C@H]1CC[C@H](Nc2ncc3ncnc(Nc4ccc(F)c(Cl)c4)c3n2)CC1` [1(59)], the pIC50 in assay [1] was 9.00; in assay [2], less than 6.00.
